Assay results: paper PMC8591627 (ACS infectious diseases, 2021)
Where “and” joins values, the source holds several entries; their conditions need not be identical. Identical values can stand only once.

Columns and labels:
MSSA ATCC 25923 = experiment: MIC, drug susceptibility assay; format: cell-based, Staphylococcus aureus; conditions: 18 h, 37 °C, visual inspection
MRSA ATCC 43300 = experiment: MIC, drug susceptibility assay; format: cell-based, Staphylococcus aureus; conditions: 18 h; for MRSA ATCC 43300 MIC: 37 °C, visual inspection
Vero cells = format: cell-based; conditions: 72 h; for CC50: read-out: Vero cell CC50
[1] = system: JSF-3151–resistant strains; experiment: MIC versus JSF-3151-resistant strains compared to the parental strain; format: cell-based, Staphylococcus aureus
S. aureus = conditions: 8x MIC; ref [13], [35]–[36]; cited from earlier work
MRSA COL strain = experiment: Mouse peritonitis-sepsis model; format: in vivo, Staphylococcus aureus; conditions: single dose 100 mg/kg subcutaneous

For `CC(=O)N1CCN(c2cc3c(cc2F)c(=O)c(C(=O)N2CCCc4ccccc42)cn3C2CC2)CC1` [JSF-3145], the “MSSA ATCC 25923 MIC” value (MSSA ATCC 25923; listed as Z27692293 (3145)) was 12 μg/mL and 25 μM, the “MRSA ATCC 43300 MIC” value (MRSA ATCC 43300; listed as Z27692293 (3145)) was 12 μg/mL and 25 μM and the “Vero cell CC50” value (Vero cells) was > 50 µg/mL. For the same compound, the CC50 (Vero cells) was > 100 µM.

For `CC[C@H]1OC(=O)[C@H](C)[C@@H](O[C@H]2C[C@@](C)(OC)[C@@H](O)[C@H](C)O2)[C@H](C)[C@@H](O[C@@H]2O[C@H](C)C[C@H](N(C)C)[C@H]2O)[C@](C)(O)C[C@@H](C)C(=O)[C@H](C)[C@@H](O)[C@]1(C)O` [erythromycin], the “MIC versus JSF-3151–resistant strains compared to parental strain” value [1] was “same MIC”.

For `CC(=O)NC[C@H]1CN(c2ccc(N3CCOCC3)c(F)c2)C(=O)O1` [linezolid], the resistance frequency (S. aureus) is given as 1 x 10^−9 to 1 x 10^−6.

For `CN[C@H](CC(C)C)C(=O)N[C@H]1C(=O)N[C@@H](CC(N)=O)C(=O)N[C@H]2C(=O)N[C@H]3C(=O)N[C@H](C(=O)N[C@H](C(=O)O)c4cc(O)cc(O)c4-c4cc3ccc4O)[C@H](O)c3ccc(c(Cl)c3)Oc3cc2cc(c3O[C@@H]2O[C@H](CO)[C@@H](O)[C@H](O)[C@H]2O[C@H]2C[C@](C)(N)[C@H](O)[C@H](C)O2)Oc2ccc(cc2Cl)[C@H]1O` [vancomycin], the “MIC versus JSF-3151–resistant strains compared to parental strain” value [1] is listed as “same MIC”, the “mice surviving 3 d post-administration” value (MRSA COL strain) is listed as 12/12 and the resistance frequency (S. aureus) is listed as 1 x 10^−9 to 1 x 10^−6.

For `Nc1ccc(C(=O)Nc2cc(Cl)cc3cccnc23)s1` [JSF-3640, 5-amino-N-(6-chloroquinolin-8-yl)thiophene-2-carboxamide], the MIC (MRSA ATCC 43300; Staphylococcus aureus, ATCC43300|MRSA, read-out: MRSA ATCC 43300 MIC) was > 50 µg/mL.

With `O=C(Nc1cccc(N2CCOC2=O)c1)c1ccc([N+](=O)[O-])o1` [JSF-3153] the “MSSA ATCC 25923 MIC” value (MSSA ATCC 25923; listed as Z364195972 (3153)) was 6.2 μg/mL and 20 μM, the “MRSA ATCC 43300 MIC” value (MRSA ATCC 43300; listed as Z364195972 (3153)) was 3.1 μg/mL and 10 μM and the “Vero cell CC50” value (Vero cells) was 1.6 µg/mL. It also gave a CC50 (Vero cells) of 5 µM.

With `CC1(C)S[C@@H]2[C@H](NC(=O)[C@H](N)c3ccccc3)C(=O)N2[C@H]1C(=O)O` [Ampicillin] the “MIC versus JSF-3151–resistant strains compared to parental strain” value [1] was “same MIC”.

For `C[C@H]1c2cccc(O)c2C(=O)C2=C(O)[C@]3(O)C(=O)C(C(N)=O)=C(O)[C@@H](N(C)C)[C@@H]3[C@@H](O)[C@@H]21` [Doxycycline], the “MIC versus JSF-3151–resistant strains compared to parental strain” value [1] was “same MIC”.

In the case of `O=C(O)c1cn(C2CC2)c2cc(N3CCNCC3)c(F)cc2c1=O` [ciprofloxacin], the resistance frequency (S. aureus) is listed as 1 x 10^−9 to 1 x 10^−6.

For `CN(C)c1nnc(-c2ccc(NC(=O)c3ccc([N+](=O)[O-])o3)cc2)o1` [JSF-3157], the “MSSA ATCC 25923 MIC” value (MSSA ATCC 25923; listed as Z1542057255 (3157)) was 6.2 μg/mL and 18 μM, the “MRSA ATCC 43300 MIC” value (MRSA ATCC 43300; listed as Z1542057255 (3157)) was 6.2 μg/mL and 18 μM and the “Vero cell CC50” value (Vero cells) was 0.78 µg/mL. For the same compound, the CC50 (Vero cells) was 2 µM.

For `CO[C@H]1/C=C/O[C@@]2(C)Oc3c(C)c(O)c4c(O)c(c(/C=N/N5CCN(C)CC5)c(O)c4c3C2=O)NC(=O)/C(C)=C\C=C\[C@H](C)[C@H](O)[C@@H](C)[C@@H](O)[C@@H](C)[C@H](OC(C)=O)[C@@H]1C` [Rifampicin], the “MIC versus JSF-3151–resistant strains compared to parental strain” value [1] was “same MIC”.
